# Laboratory results taken from PubChem BioAssay (NCI).
# Values joined by “and” are separate entries in the source; they are usually repeats but may differ in a detail not shown here. Identical values can stand only once.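 Protocol summary: plate cells (96-well), add compound at 5 concentrations, incubate 48 h, interpolate endpoints linearly. GI50: concentration for 50% inhibition of growth. TGI denotes the concentration required for complete inhibition of growth.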
# Tests used:
# Experiment in all cases: DTP human tumour cell line panel, 48 h
# COLO 205 colon = tested on: COLO 205 colon
# OVCAR-3 ovarian = tested on: OVCAR-3 ovarian
# HT29 colon = tested on: HT29 colon
# SF-539 CNS = tested on: SF-539 CNS
# CAKI-1 renal = tested on: CAKI-1 renal
# LOX IMVI melanoma = tested on: LOX IMVI melanoma
# UO-31 renal = tested on: UO-31 renal
# NCI-H226 lung = tested on: NCI-H226 lung
# UACC-62 melanoma = tested on: UACC-62 melanoma
# UACC-257 melanoma = tested on: UACC-257 melanoma
Structure (SMILES),TGI (COLO 205 colon),TGI (OVCAR-3 ovarian),TGI (HT29 colon),TGI (SF-539 CNS),TGI (CAKI-1 renal),TGI (LOX IMVI melanoma),TGI (UO-31 renal),TGI (NCI-H226 lung),TGI (UACC-62 melanoma),TGI (UACC-257 melanoma),GI50 (COLO 205 colon),GI50 (OVCAR-3 ovarian),GI50 (HT29 colon),GI50 (SF-539 CNS),GI50 (CAKI-1 renal),GI50 (LOX IMVI melanoma),GI50 (UO-31 renal),GI50 (NCI-H226 lung),GI50 (UACC-62 melanoma),GI50 (UACC-257 melanoma)
CCc1nc(N)nc(N)c1-c1ccc([N+](=O)[O-])c(NCc2ccccc2)c1,35 µM,36.6 µM,23.2 µM,39.3 µM,29.3 µM,45.4 µM,22.2 µM,46.8 µM,35.7 µM,30.9 µM,,,,,,,,,,
O=C(Nc1ccc(OC(F)(F)F)cc1)c1sccc1NCc1ccnc2ccccc12,13.8 µM,> 100 µM,> 100 µM,> 100 µM,19.3 µM,13.5 µM,26.1 µM,> 90.6 µM,14.9 µM,52.5 µM,3.74 µM,4.89 µM,3.36 µM,4.3 µM,1.75 µM,2.85 µM,2.34 µM,2.89 µM,1.89 µM,3.62 µM
CC1(C)CCC(C)(C)c2cc(C(=O)Nc3ccc(C(=O)O)cc3)ccc21,36 µM,40.4 µM,> 68.2 µM,30.3 µM,37.2 µM,> 58.2 µM,30.7 µM,> 65.5 µM,41.2 µM,> 67.7 µM,,,,,,,,,,
COC1/C=C/OC2(C)Oc3c(C)c(O)c4c(c3C2=O)C(=O)C=C(NC(=O)/C(C)=C\C=C\C(C)C(OC=O)C(C)C(O)C(C)C(OC(C)=O)C1C)C4=O (centres undefined),18 µM,11.9 µM,23.4 µM,32.9 µM,28.3 µM,14.1 µM,29.6 µM,21.5 µM,27.9 µM,26.5 µM,,,,,,,,,,
Clc1ccc([O][In]([O]c2ccc(Cl)cn2)[O]c2ccc(Cl)cn2)nc1,> 100 µM,> 100 µM,> 100 µM,> 100 µM,> 100 µM,> 100 µM,> 100 µM,> 100 µM,> 100 µM,> 100 µM,> 100 µM,> 100 µM,> 100 µM,> 100 µM,> 100 µM,> 100 µM,> 100 µM,> 100 µM,> 100 µM,> 100 µM
COc1cc2cc(Oc3ccc(NC(=O)c4cccc(C(F)(F)F)c4)cc3)c(C)nc2cc1OC,> 100 µM,45.5 µM,> 100 µM,> 100 µM,> 100 µM,> 100 µM,> 100 µM,> 100 µM,> 100 µM,> 100 µM,4.65 µM,3.96 µM,6.65 µM,8.35 µM,2.75 µM,4.36 µM,4.59 µM,7.84 µM,5.27 µM,5.41 µM
CSc1ccc(C2=Nn3c(nnc3-c3ccc(F)c(Cl)c3)SC2)cc1,> 100 µM,21 µM,29.7 µM,26.7 µM,> 100 µM,43.1 µM,43.7 µM,75.7 µM,8.19 µM,> 100 µM,25.9 µM,5.62 µM,5.73 µM,10.1 µM,22.5 µM,10.8 µM,16.5 µM,18.4 µM,2.04 µM,67.6 µM
CSc1ccc(/C=C2\CNC/C(=C\c3ccc(SC)cc3)C2=O)cc1,> 371 µM and 150 µg/mL,> 136 µM and 150 µg/mL,> 117 µM and 150 µg/mL,32.7 µM and 43.8 µg/mL,150 µg/mL,> 371 µM and 150 µg/mL,> 371 µM and 150 µg/mL,104 µM and 150 µg/mL,> 214 µM and 150 µg/mL,> 371 µM and 150 µg/mL,150 µg/mL,47.4 µg/mL,150 µg/mL,15.2 µg/mL,90.3 µg/mL,7.76 µM and 150 µg/mL,150 µg/mL,99.7 µg/mL,93.5 µg/mL,150 µg/mL
COC(=O)c1nc(NN)[nH]c(=O)c1CCCCCc1c(C(=O)OC)[nH]c(NN)cc1=O,> 100 µM,> 100 µM,> 100 µM,> 100 µM,> 100 µM,> 100 µM,> 100 µM,> 100 µM,> 100 µM,> 100 µM,,,,,,,,,,
C=C(C)C1CC2C(C)=C(OC(C)=O)C1n1c(=O)c3cc4ccccc4cc3c(=O)n12 (centres undefined),> 100 µM,> 100 µM,> 100 µM,> 100 µM,> 100 µM,> 100 µM,> 100 µM,> 100 µM,> 100 µM,> 100 µM,,,,,,,,,,
CNC(=O)Nc1ccc(-c2nc(N3CCOCC3)nc3c2cnn3C2CCOCC2)cc1,> 100 µM,,> 100 µM,1.36 µM,2.62 µM,> 100 µM,0.544 µM,4.26 µM,1.19 µM,1.4 µM,0.247 µM,0.21 µM,0.295 µM,0.205 µM,0.227 µM,0.161 µM,0.0435 µM,0.125 µM,0.182 µM,0.184 µM
Cc1cc2c(cc1C)NC1=C(N2)OC(c2c[nH]c3ccc(COc4ccccc4)cc23)C1=O (centres undefined),> 100 µM,> 100 µM,> 100 µM,95.3 µM,> 100 µM,> 100 µM,> 100 µM,> 100 µM,> 100 µM,> 100 µM,,,,,,,,,,
CC1(C)N=C(N)N=C(N)N1c1ccc(CCc2ccccc2)c(Cl)c1,6.83 µM,12.4 µM,12.7 µM,12.4 µM,> 48.8 µM,13.5 µM,> 100 µM,17.1 µM,11.7 µM,13.1 µM,0.0694 µM,0.281 µM,0.0531 µM,0.131 µM,3.99 µM,0.0426 µM,8.12 µM,0.521 µM,0.0572 µM,0.392 µM
